Experimental data: ChEMBL document CHEMBL1156790, “Synthesis and structure-activity relationships of antitubercular 2-nitroimidazooxazines bearing heterocyclic side chains” (J Med Chem, 2010)
Values after ≈ are worked out from the molar mass of the structure shown.

Experiments:
[1] = tested on: Mycobacterium tuberculosis; assay: Antimycobacterial activity against Mycobacterium tuberculosis H37Rv after 16 to 24 hrs by microplate alamar blue assay; format: functional
[2] = tested on: Mycobacterium tuberculosis; assay: Antimycobacterial activity against Mycobacterium tuberculosis H37Rv expressing pFCA-luxAB after 10 days by luminescence-based low-oxygen recovery assay; format: functional; conditions: 240 h
[3] = Solubility in water at pH 7 at 20 degC; format: physicochemical
Vero = assay: Cytotoxicity against african green monkey Vero cells after 72 hrs by tetrazolium dye assay; format: cell-based; conditions: Chlorocebus sabaeus
[4] = Metabolic stability in mouse liver microsomes after 1 hr at 37 degC; format: ADME, Microsome; conditions: for remaining at 1 h: liver microsomes, read-out: Stability
[5] = (§1) Metabolic stability in human liver microsomes after 1 hr at 37 degC; format: ADME, Microsome; conditions: liver microsomes, read-out: Stability
[6] = tested on: Mycobacterium tuberculosis; assay: Antitubercular effect in Mycobacterium tuberculosis infected BALB/c mouse assessed as CFU reduction at 100 mg/kg, po administered 5 days a week for 3 weeks relative to PA-824; format: functional
Liver microsomes = assay: as §1; format: ADME, Microsome; conditions: microsomes, 1 h
[7] = Thermodynamic solubility in water at pH 7.4 at; format: physicochemical; conditions: for solubility thermodynamic: water

Row | SMILES | MIC [1] | MIC [2] | solubility [3] | IC50 (Vero) | remaining at 1 h [4] | remaining at 1 h [5] | fold change (FC) [6] | Stability (Liver microsomes) | Stability ([4]; microsomes, 1 h) | solubility thermodynamic [7] | solubility ([7]; buffer)
1 | O=[N+]([O-])c1cn2c(n1)OC[C@@H](OCc1nnc(-c3ccc(F)cc3)o1)C2 | 2.4 µM (≈ 0.867 µg/mL) | 17 µM (≈ 6.14 µg/mL) | 108 µg/mL (≈ 299 µM) | > 128 µM | – | – | – | – | – | – | –
2 | O=[N+]([O-])c1cn2c(n1)OC[C@@H](OCc1nnn(-c3ccc(OC(F)(F)F)cc3)n1)C2 | 0.035 µM (≈ 0.015 µg/mL) | 1.3 µM (≈ 0.555 µg/mL) | – | > 128 µM | 81% | – | – | – | – | – | –
3 | O=[N+]([O-])c1cn2c(n1)OC[C@@H](OCc1ccc(-c3ccc(C(F)(F)F)nc3)s1)C2 | 0.05 µM (≈ 0.0213 µg/mL) | 4.4 µM (≈ 1.88 µg/mL) | 8.9 µg/mL (≈ 20.9 µM) | > 128 µM | 77% | 85% | 2.3 | – | – | – | –
4 | O=[N+]([O-])c1cn2c(n1)OC[C@@H](OCc1cnn(-c3ccc(C(F)(F)F)cc3)n1)C2 | 0.05 µM (≈ 0.0205 µg/mL) | 2.1 µM (≈ 0.862 µg/mL) | 1 µg/mL (≈ 2.44 µM) | > 128 µM | – | – | – | – | – | – | –
5 | N#Cc1ccc(-c2ccc(CO[C@@H]3COc4nc([N+](=O)[O-])cn4C3)s2)cc1 | 0.055 µM (≈ 0.021 µg/mL) | 1.7 µM (≈ 0.65 µg/mL) | – | > 128 µM | 54% | 85% | 0.02 | – | – | – | –
6 | O=[N+]([O-])c1cn2c(n1)OC[C@@H](OCc1cnn(-c3ccc(OC(F)(F)F)cc3)c1)C2 | 0.15 µM (≈ 0.0638 µg/mL) | 1.8 µM (≈ 0.766 µg/mL) | – | > 128 µM | 64% | 87% | 1.5 | – | – | – | –
7 | O=[N+]([O-])c1cn2c(n1)OC[C@@H](OCc1ccn(-c3ccc(OC(F)(F)F)cc3)n1)C2 | 0.05 µM (≈ 0.0213 µg/mL) | 0.61 µM (≈ 0.259 µg/mL) | – | > 128 µM | – | – | 41 | 87% | 67% | 23 µg/mL (≈ 54.1 µM) | –
8 | O=[N+]([O-])c1cn2c(n1)OC[C@@H](OCc1cn(-c3ccc(OC(F)(F)F)cc3)nn1)C2 | 0.075 µM (≈ 0.032 µg/mL) | 3.3 µM (≈ 1.41 µg/mL) | – | > 128 µM | 74% | 99% | 0.34 | – | – | – | –
9 | O=[N+]([O-])c1cn2c(n1)OC[C@@H](OCc1nnn(-c3ccc(C(F)(F)F)cc3)n1)C2 | 0.2 µM (≈ 0.0823 µg/mL) | 1.4 µM (≈ 0.576 µg/mL) | 5 µg/mL (≈ 12.2 µM) | > 128 µM | – | – | – | – | – | – | –
10 | Cn1nc(-c2ccc(OC(F)(F)F)cc2)cc1CO[C@@H]1COc2nc([N+](=O)[O-])cn2C1 | 0.06 µM (≈ 0.0264 µg/mL) | 0.58 µM (≈ 0.255 µg/mL) | – | > 128 µM | 81% | 86% | 12 | – | – | – | 0.88 µg/mL (≈ 2 µM)
11 | O=[N+]([O-])c1cn2c(n1)OC[C@@H](OCc1cn(-c3ccc(C(F)(F)F)cc3)nn1)C2 | 0.11 µM (≈ 0.0451 µg/mL) | 3.4 µM (≈ 1.4 µg/mL) | 4.6 µg/mL (≈ 11.2 µM) | > 128 µM | – | – | – | – | – | – | –
12 | O=[N+]([O-])c1cn2c(n1)OC[C@@H](OCc1cc(-c3ccc(C(F)(F)F)cc3)no1)C2 | 0.17 µM (≈ 0.0698 µg/mL) | 2.6 µM (≈ 1.07 µg/mL) | 0.5 µg/mL (≈ 1.22 µM) | > 128 µM | – | – | – | – | – | – | –
13 | O=[N+]([O-])c1cn2c(n1)OC[C@@H](OCc1ccc(-c3ccc(OC(F)(F)F)cc3)cc1)C2 | – | 1.3 µM (≈ 0.566 µg/mL) | – | > 128 µM | – | – | – | – | – | < 0.5 µg/mL | –
14 | O=[N+]([O-])c1cn2c(n1)OC[C@@H](OCc1ccc(OC(F)(F)F)cc1)C2 [PRETOMANID] | – | 2.6 µM (≈ 0.934 µg/mL) | – | > 128 µM | – | – | – | – | – | 11 µg/mL (≈ 30.6 µM) | –
